Reference: US8431596B2 (Cancer Research Technology Limited, priority 2007, dated 2013)

Molecular target: T1, AXL (human catalytic domain) (Homo sapiens, UniProt P30530)
T1 construct: purchased Upstate Ltd. 14-512
T1 sequence (P30530 473-894): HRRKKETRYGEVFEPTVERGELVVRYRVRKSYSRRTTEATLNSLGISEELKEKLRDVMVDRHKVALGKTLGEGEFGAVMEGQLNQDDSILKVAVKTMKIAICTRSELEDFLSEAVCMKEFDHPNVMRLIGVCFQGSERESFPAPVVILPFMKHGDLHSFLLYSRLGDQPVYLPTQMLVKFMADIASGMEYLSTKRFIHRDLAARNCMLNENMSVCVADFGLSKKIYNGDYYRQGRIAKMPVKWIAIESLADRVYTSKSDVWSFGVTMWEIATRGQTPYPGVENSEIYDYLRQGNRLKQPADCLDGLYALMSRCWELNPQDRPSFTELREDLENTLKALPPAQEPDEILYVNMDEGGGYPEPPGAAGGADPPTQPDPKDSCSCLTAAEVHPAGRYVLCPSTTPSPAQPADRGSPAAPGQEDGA
Assay: AXL (human catalytic domain) Enzyme Activity Assay (IMAP fluorescence polarisation)
Type: biochemical
Experimental: Biological Methods AXL (human catalytic domain) Enzyme Activity Assay Reagents
Kinase Assay Reaction Buffer: This consisted of 20 mM HEPES pH 7.0, 10 mM MgCl2, 1 mM DTT, […], 0.01% Triton X100 (v/v), and 0.01% BSA (w/v). All buffer components were purchased from Sigma-Aldrich at reagent grade or higher.
Kinase: Recombinant AXL isoform 1 (aa473-894 corresponding to Genbank Accession Number NP 068713) at 2 mg/mL (20.8 μM) was purchased from Upstate Ltd. (Product code 14-512, lot #28164U). The enzyme was stored at −80° C. and a working stock was prepared to a concentration of 30 nM by diluting 20.8 μM stock 1:693 in cold (4° C.) 1× Reaction Buffer. Final enzyme concentration in the assay was 15 nM.
Substrate: Fluorescein labelled CSK-tide 5FAM-[…]-NH2 was obtained from Molecular Devices (Product code R7270) and used at a working concentration of 200 nM by diluting the 100 μM stock 1:500 in 1× Reaction Buffer in a mix with the enzyme. A negative control (lacking enzyme) was prepared at the same concentrations. Final substrate concentration in the assay was 100 nM.
ATP: Supplied by Sigma (product code A-7699). A 100 mM ATP stock was prepared in […] and used at a working concentration of 375 μM by diluting the 100 mM stock 1:266.6 in Reaction Buffer. Final ATP concentration in the assay was 150 μM; this concentration represents the KM.ATP for this enzyme calculated in this assay.
IMAP Reagents: IMAP screening express kit was obtained from Molecular Devices (product code R8127). The binding reagent was gently re-suspended before diluting by 1:1000 in buffer (Binding Buffer is supplied as a 5× stock and so was diluted with water prior to use—this assay used 40% buffer A and 60% buffer B) and then vortexed before addition to wells. The binding reagent was used at a final dilution of 1:1333.
1 μL samples of test compounds in 10% DMSO/water were added to “test” wells by dry-spotting using a Matrix Platemate Plus. 5 μL Kinase/Substrate in Reaction Buffer were added to columns 1-22 of a Corning black low binding 384 well #6754 (90 μL volume) microplate to give 12 nM and 100 nM reaction concentration respectively. 5 μL substrate in Reaction Buffer was added to columns 23 and 24 to give 100 nM reaction concentration. 4 μL ATP in Reaction Buffer was added to all wells to give 150 μM reaction concentration. The reaction mixture was then incubated at room temperature for 60 minutes. The incubation period was followed by the addition of 20 μL IMAP Binding Reagent in Binding Buffer to all wells. The IMAP reaction detection was further incubated at room temperature overnight. The FP on a Tecan Ultra Plate reader was recorded as a single read at Ex485 Em535.
Percentage inhibition was calculated based on activity of the test sample minus the average values in the blank wells relative to the average values measured in control wells minus the average values in the blank wells.
IC50 values were calculated from 10 point dose sigmoid ‘dose-response’ curves using XIfit software (IDBS Inc, USA). Data were fitted to a 4 parameter logistic model/sigmoidal dose response defined by the following equation:
[formula] where: • A=fit minimum (locked to 0); • B=fit maximum (locked to 100); • C=fit midpoint (pre-fit to 1); and • D=slope at linear portion of curve, hillslope (pre-fit to 0.1).
The value for C represents the IC50 of the test compound.

[1] = further data set (WW-001 through WW-169, XX-001 through XX-469, YY-001 through YY-016, ZZ-001 through ZZ-003), 150 μM ATP
[2] = first data set, recombinant AXL isoform 1 aa473-894, 150 μM ATP

IC50 [1] | IC50 [2] | SMILES
100 to 1000 nM |  | c1cc(OCC2CCCO2)cc(-c2cccc3nc(Nc4ccc(OCCN5CCCC5)cc4)nn23)c1 (centres unmarked) [XX-175, [4-(2-Pyrrolidin-1-yl-ethoxy)-phenyl]-{5-[3-(tetrahydro-furan-2-ylmethoxy)-phenyl]-[1,2,4]triazolo[1,5-a]pyridin-2-yl}-amine]
100 to 1000 nM |  | c1coc(-c2ccc(-c3cccc4nc(Nc5ccc(OCCN6CCCC6)cc5)nn34)cc2)c1 [XX-188]
1000 to 10000 nM |  | O=C(Nc1cccc(Cl)c1)c1cccc(-c2cccc3nc(Nc4ccc(OCCN5CCCC5)cc4)nn23)c1 [XX-322]
100 to 1000 nM |  | Cc1csc(SCCn2cc(-c3cccc4nc(Nc5ccc(OCCN6CCCC6)cc5)nn34)cn2)n1 [XX-424]
100 to 1000 nM |  | O=C(Nc1cccc(-c2cccc3nc(Nc4ccc(OCCN5CCCC5)cc4)nn23)c1)C1CC1 [XX-178]
1000 to 10000 nM |  | O=C(Nc1ccc(Cl)cc1)c1cccc(-c2cccc3nc(Nc4ccc(OCCN5CCCC5)cc4)nn23)c1 [XX-321]
≤ 100 nM | < 1000 nM | c1cc(-c2ccc3occc3c2)n2nc(Nc3ccc(N4CCNCC4)cc3)nc2c1 [XX-058]
100 to 1000 nM |  | Clc1ccccc1Cn1cc(-c2cccc3nc(Nc4ccc(OCCN5CCCC5)cc4)nn23)cn1 [XX-354]
100 to 1000 nM |  | ClCc1cccc(-c2cccc3nc(Nc4ccc(OCCN5CCCC5)cc4)nn23)c1 [XX-341, [5-(3-Chloromethyl-phenyl)-[1,2,4]triazolo[1,5-a]pyridin-2-yl]-[4-(2-pyrrolidin-1-yl-ethoxy)-phenyl]-amine]
100 to 1000 nM |  | CC(C)(C)NC(=O)NCc1cccc(-c2cccc3nc(Nc4ccc(OCCN5CCCC5)cc4)nn23)c1 [XX-372]
100 to 1000 nM |  | Cc1cc(-c2ccc3c(c2)OCCO3)n2nc(Nc3ccc(OCCN4CCCC4)cc3)nc2c1 [XX-311, [5-(2,3-Dihydro-benzo[1,4]dioxin-6-yl)-7-methyl-[1,2,4]triazolo[1,5-a]pyridin-2-yl]-[4-(2-pyrrolidin-1-yl-ethoxy)-phenyl]-amine]
100 to 1000 nM |  | Fc1ccc(CNc2cccc(-c3cccc4nc(Nc5ccc(OCCN6CCCC6)cc5)nn34)c2)nc1 [XX-443]
100 to 1000 nM |  | O=C(Cn1cc(-c2cccc3nc(Nc4ccc(OCCN5CCCC5)cc4)nn23)cn1)NCCO [XX-436]
1000 to 10000 nM |  | CCCOc1cccc(-c2cccc3nc(Nc4ccc(OCCN5CCCC5)cc4)nn23)c1 [XX-405]
1000 to 10000 nM | 1000 to 10000 nM | O=C(Nc1nc2cccc(-c3cccc([N+](=O)[O-])c3)n2n1)C1CC1 [WW-091]
100 to 1000 nM | < 1000 nM | COc1ccc(-c2cccc3nc(Nc4ccc(OCCn5ccnc5)cc4)nn23)cc1 [XX-016]
100 to 1000 nM | < 1000 nM | CN(C)CCOc1ncc(Nc2nc3cccc(-c4ccc5c(c4)OCCO5)n3n2)cn1 [XX-078]
1000 to 10000 nM | 1000 to 10000 nM | COc1ccc(-c2cccc3nc(NC(=O)C4CC4)nn23)cc1F [WW-067]
100 to 1000 nM |  | CC(C)Oc1ccc(-c2cccc3nc(Nc4ccc(OCCCN5CCCCC5)cc4)nn23)cc1 [XX-420]
100 to 1000 nM |  | COc1ccc(S(=O)(=O)Nc2ccc(-c3cccc4nc(Nc5ccc(OCCN6CCCC6)cc5)nn34)cc2)cc1 [XX-254, 4-Methoxy-N-(4-{2-[4-(2-pyrrolidin-1-yl-ethoxy)-phenylamino]-[1,2,4]triazolo[1,5-a]pyridin-5-yl}-phenyl)-benzenesulfonamide]
1000 to 10000 nM | 1000 to 10000 nM | O=C(Nc1nc2cccc(-c3ccoc3)n2n1)C1CC1 [WW-056, Cyclopropanecarboxylic acid (5-furan-3-yl [1,2,4]triazolo[1,5-a]pyridin-2-yl)-amide]
100 to 1000 nM |  | COc1ccc(-c2cccc3nc(Nc4cccc(C(=O)NCCO)c4)nn23)cc1 [XX-042]
≤ 100 nM | < 1000 nM | COc1ccc(-c2nccc3nc(Nc4ccc(OCCN5CCCCC5)cc4)nn23)cc1 [YY-002]

IC50 [1] | IC50 [2] | SMILES
1000 to 10000 nM |  | NC(=O)c1cccc(-c2cccc3nc(Nc4ccc(OCCN5CCCC5)cc4)nn23)c1 [XX-183]
1000 to 10000 nM | 1000 to 10000 nM | NCc1ccc(-c2cccc3nc(NC(=O)C4CC4)nn23)cc1 [WW-050]
1000 to 10000 nM |  | O=C(CSc1ccc(Nc2nc3cccc(-c4ccc5c(c4)OCCO5)n3n2)cc1)N1CCCC1 [XX-160]
1000 to 10000 nM |  | COc1ncccc1-c1cccc2nc(Nc3ccc(OCCN4CCCC4)cc3)nn12 [XX-200]
100 to 1000 nM |  | COc1ccc(-c2cccc3nc(Nc4ccc(OCC(O)CN5CCOCC5)cc4)nn23)cc1 (centres unmarked) [XX-410]
100 to 1000 nM |  | Cc1cc(CNc2cccc(-c3cccc4nc(Nc5ccc(OCCN6CCCC6)cc5)nn34)c2)no1 [XX-446]
100 to 1000 nM |  | c1cc(-c2ccc3c(c2)OCCO3)n2nc(Nc3ccc(OCCN4CCCCC4)nc3)nc2c1 [XX-106]
100 to 1000 nM |  | CN(C)CCCc1ccc(Nc2nc3cccc(-c4ccc5c(c4)OCCO5)n3n2)cc1 [XX-137]
100 to 1000 nM |  | COc1cccc(Cn2cc(-c3cccc4nc(Nc5ccc(OCCN6CCCC6)cc5)nn34)cn2)c1 [XX-369]
100 to 1000 nM |  | O=C(CCN1CCCCC1)Nc1ccc(Nc2nc3cccc(-c4ccc5c(c4)OCCO5)n3n2)cc1 [XX-123]
1000 to 10000 nM | 1000 to 10000 nM | O=C(Nc1nc2cccc(-c3ccc(CO)cc3)n2n1)C1CC1 [WW-027]
1000 to 10000 nM | 1000 to 10000 nM | COc1ccc(-c2cccc3nc(NC(C)=O)nn23)cc1 [WW-039]
100 to 1000 nM | 1000 to 10000 nM | COc1ccc(-c2cccc3nc(NCC4CC4)nn23)cc1 [XX-003, Cyclopropylmethyl-[5-(4-methoxy-phenyl)-[1,2,4]triazolo[1,5-a]pyridin-2-yl]-amine]
1000 to 10000 nM | 1000 to 10000 nM | COc1cc(-c2cccc3nc(NC(=O)C4CC4)nn23)ccc1F [WW-098]
100 to 1000 nM |  | CCN(CC)CCOc1cc(Nc2nc3cccc(-c4cnn(S(=O)(=O)CC(C)C)c4)n3n2)ccn1 [XX-389]
100 to 1000 nM |  | CCCNC(=O)Cn1cc(-c2cccc3nc(Nc4ccc(OCCN5CCCC5)cc4)nn23)cn1 [XX-441]
100 to 1000 nM |  | Cc1ccc(S(=O)(=O)Nc2ccc(-c3cccc4nc(Nc5ccc(OCCN6CCCC6)cc5)nn34)cc2)cc1 [XX-271]
100 to 1000 nM |  | c1cc(-c2ccsc2)cc(-c2cccc3nc(Nc4ccc(OCCN5CCCC5)cc4)nn23)c1 [XX-166]
100 to 1000 nM |  | O=C(c1cccc(-c2cccc3nc(Nc4ccc(OCCN5CCCC5)cc4)nn23)c1)c1ccc2c(c1)OCO2 [XX-310, Benzo[1,3]dioxol-5-yl-(3-{2-[4-(2-pyrrolidin-1-yl-ethoxy)-phenylamino]-[1,2,4]triazolo[1,5-a]pyridin-5-yl}-phenyl)-methanone]
100 to 1000 nM |  | Clc1cccc(-c2cccc3nc(Nc4ccc(OCCN5CCCC5)cc4)nn23)c1 [XX-210]
1000 to 10000 nM |  | c1cc(-c2ccncc2)n2nc(Nc3ccc(OCCN4CCCC4)cc3)nc2c1 [XX-219]
100 to 1000 nM |  | c1cncc(CNc2cccc(-c3cccc4nc(Nc5ccc(OCCN6CCCC6)cc5)nn34)c2)c1 [XX-442]
1000 to 10000 nM | 1000 to 10000 nM | COc1ccc(-c2cccc3nc(NC(=O)C4CC4)nn23)cc1OC [WW-100]
